Assay results as given in ChEMBL document CHEMBL1201862, “PubChem BioAssay data set” (2004).
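Each compound was tested at five concentrations against cells in 96-well plates for 48 hours. The concentration for 50% growth inhibition is given as GI50.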 Calls of active or inactive are those of the source. Cut-off read from the data, not from the text of the source: active = GI50 up to about 1.1 µM and inactive = higher.

Key:
Test in all cases: NCI anticancer screen, dose series, 48 h
OVCAR-3 = system: OVCAR-3
MOLT-4 = system: MOLT-4
SN12C = system: SN12C
SNB-75 = system: SNB-75
NCI-H460 = system: NCI-H460
RXF 393 = system: RXF 393
DU-145 = system: DU-145
T47D = system: T47D
786-0 = system: 786-0
SF-295 = system: SF-295
HCT-15 = system: HCT-15
SK-MEL-2 = system: SK-MEL-2
UACC-62 = system: UACC-62
SK-MEL-28 = system: SK-MEL-28
SF-539 = system: SF-539
HCC 2998 = system: HCC 2998
MDA-MB-435 = system: MDA-MB-435
SK-MEL-5 = system: SK-MEL-5
EKVX = system: EKVX
MCF7 = system: MCF7
MDA-MB-231 = system: MDA-MB-231
SW-620 = system: SW-620
SF-268 = system: SF-268
PC-3 = system: PC-3
Malme-3M = system: Malme-3M
HCT-116 = system: HCT-116
U-251 = system: U-251
A498 = system: A498
CCRF-CEM = system: CCRF-CEM
NCI-H23 = system: NCI-H23
OVCAR-8 = system: OVCAR-8
NCI/ADR-RES = system: NCI/ADR-RES
KM12 = system: KM12
UACC-257 = system: UACC-257
SK-OV-3 = system: SK-OV-3
CAKI-1 = system: CAKI-1
TK-10 = system: TK-10
BT-549 = system: BT-549
HT-29 = system: HT-29
LOX IMVI = system: LOX IMVI
ACHN = system: ACHN
HOP-92 = system: HOP-92
IGROV-1 = system: IGROV-1
K562 = system: K562
OVCAR-4 = system: OVCAR-4
COLO 205 = system: COLO 205
HOP-62 = system: HOP-62
RPMI-8226 = system: RPMI-8226
HL-60 = system: HL-60
OVCAR-5 = system: OVCAR-5
MDA-N = system: MDA-N
NCI-H522 = system: NCI-H522
NCI-H226 = system: NCI-H226
M14 = system: M14
A549 = system: A549
SNB-19 = system: SNB-19
SR = system: SR
UO-31 = system: UO-31
Hs-578T = system: Hs-578T

Measured: GI50

CC1=C(SCc2ccccc2)C(=O)c2ccccc2C1=O
inactive: OVCAR-3 10.5 µM | MOLT-4 1.68 µM | SN12C 17.8 µM | SNB-75 13.4 µM | NCI-H460 21.8 µM | RXF 393 16.6 µM | DU-145 19.8 µM | T47D 3.18 µM | 786-0 13.2 µM | SF-295 18.1 µM | SK-MEL-2 17.8 µM | UACC-62 15.8 µM | SK-MEL-28 19.2 µM | SF-539 14.8 µM | HCC 2998 26.7 µM | MDA-MB-435 14.6 µM | SK-MEL-5 14.4 µM | EKVX 19.1 µM | MCF7 14.2 µM | MDA-MB-231 17.1 µM | SW-620 19.9 µM | SF-268 16.7 µM | PC-3 17.6 µM | Malme-3M 15.5 µM | HCT-116 4.23 µM | U-251 16.8 µM | A498 24 µM | CCRF-CEM 2.9 µM | NCI-H23 17.9 µM | OVCAR-8 13.4 µM | NCI/ADR-RES 21.7 µM | KM12 18.5 µM | UACC-257 16.1 µM | SK-OV-3 20.2 µM | CAKI-1 13.4 µM | TK-10 21 µM | BT-549 16.7 µM | HT-29 30.3 µM | LOX IMVI 17.6 µM | ACHN 13.6 µM | HOP-92 4.72 µM | IGROV-1 12 µM | K562 3.05 µM | OVCAR-4 13.9 µM | COLO 205 19.7 µM | HOP-62 17.3 µM | RPMI-8226 2.42 µM | HL-60 3.73 µM | OVCAR-5 25.5 µM
18.5 µM: HCT-15

Cc1[nH]c2c(c1C)S(=O)(=O)c1cc3ccccc3nc1N2
22.1 µM: HCT-15
inactive: OVCAR-3 19.9 µM | MDA-N 15.7 µM | MOLT-4 > 100 µM | SN12C 16.4 µM | SNB-75 17.3 µM | NCI-H460 18.7 µM | RXF 393 19.3 µM | DU-145 24.9 µM | T47D > 100 µM | 786-0 16.6 µM | SF-295 27.3 µM | SK-MEL-2 55.3 µM | NCI-H522 21.4 µM | UACC-62 42.7 µM | SK-MEL-28 25.5 µM | SF-539 6.81 µM | HCC 2998 65.2 µM | MDA-MB-435 26.4 µM | SK-MEL-5 14.6 µM | EKVX 36.7 µM | MCF7 5.15 µM | MDA-MB-231 27.8 µM | SW-620 40.4 µM | NCI-H226 22 µM | SF-268 28.1 µM | PC-3 34.3 µM | Malme-3M 16.6 µM | HCT-116 15.8 µM | U-251 11.2 µM | A498 73.8 µM | M14 20 µM | A549 36.3 µM | CCRF-CEM 5.09 µM | NCI-H23 23.9 µM | OVCAR-8 12.3 µM | NCI/ADR-RES 32.3 µM | KM12 27.9 µM | UACC-257 35.9 µM | SK-OV-3 30.8 µM | CAKI-1 30.5 µM | TK-10 37.7 µM | BT-549 69.8 µM | HT-29 15 µM | SNB-19 26.2 µM | SR 17.1 µM | LOX IMVI 10.6 µM | ACHN 29.5 µM | HOP-92 25.4 µM | IGROV-1 10.1 µM | K562 10.9 µM | OVCAR-4 14.3 µM | COLO 205 20 µM | HOP-62 18.2 µM | RPMI-8226 14.7 µM | UO-31 21.6 µM | OVCAR-5 19.7 µM

NC(=O)ON=C1CCN(Cc2ccccc2)CC1
inactive: OVCAR-3 > 100 µM | MDA-N > 100 µM | MOLT-4 > 100 µM | SN12C > 100 µM | SNB-75 74.8 µM | Hs-578T > 100 µM | NCI-H460 > 100 µM | RXF 393 > 100 µM | DU-145 > 100 µM | T47D > 100 µM | 786-0 > 100 µM | SF-295 > 100 µM | SK-MEL-2 > 100 µM | NCI-H522 > 100 µM | UACC-62 > 100 µM | SK-MEL-28 > 100 µM | SF-539 > 100 µM | HCC 2998 > 100 µM | MDA-MB-435 > 100 µM | SK-MEL-5 > 100 µM | EKVX > 100 µM | MCF7 > 100 µM | MDA-MB-231 > 100 µM | SW-620 > 100 µM | NCI-H226 > 100 µM | SF-268 > 100 µM | PC-3 > 100 µM | Malme-3M > 100 µM | HCT-116 > 100 µM | U-251 > 100 µM | A498 > 100 µM | M14 > 100 µM | A549 > 100 µM | CCRF-CEM > 100 µM | NCI-H23 > 100 µM | OVCAR-8 > 100 µM | NCI/ADR-RES > 100 µM | KM12 > 100 µM | UACC-257 > 100 µM | SK-OV-3 > 100 µM | CAKI-1 > 100 µM | TK-10 29.9 µM | HT-29 > 100 µM | SNB-19 > 100 µM | SR > 100 µM | LOX IMVI > 100 µM | ACHN > 100 µM | HOP-92 > 100 µM | IGROV-1 > 100 µM | K562 > 100 µM | OVCAR-4 > 100 µM | COLO 205 > 100 µM | HOP-62 > 100 µM | RPMI-8226 > 100 µM | UO-31 > 100 µM | HL-60 > 100 µM | OVCAR-5 > 100 µM
> 100 µM: HCT-15

CC[C@@]1(O)C(=O)OCc2c1cc1n(c2=O)Cc2c-1nc1ccccc1c2/C=N/c1ccccc1N[C@@H]1c2cc3c(cc2[C@@H](c2cc(OC)c(O)c(OC)c2)[C@H]2C(=O)OC[C@@H]21)OCO3
active: SNB-75 0.028 µM | DU-145 0.00767 µM | T47D 0.014 µM | 786-0 0.0142 µM | UACC-62 0.014 µM | HCC 2998 0.148 µM | SK-MEL-5 0.0532 µM | MCF7 0.00684 µM | MDA-MB-231 1.05 µM | SW-620 0.157 µM | NCI-H226 0.0362 µM | SF-268 0.0161 µM | PC-3 0.164 µM | Malme-3M 0.329 µM | HCT-116 0.0527 µM | U-251 0.188 µM | M14 0.0239 µM | A549 0.0351 µM | CCRF-CEM < 0.005 µM | UACC-257 0.278 µM | CAKI-1 0.0204 µM | BT-549 0.269 µM | SR < 0.005 µM | LOX IMVI 0.0194 µM | ACHN 0.0106 µM | HOP-92 0.209 µM | OVCAR-4 0.427 µM | HOP-62 0.0103 µM | RPMI-8226 0.175 µM

COc1cccc2c1OCC1Cc3ccccc3OC21 (stereo not drawn)
inactive: OVCAR-3 26.5 µM | MDA-N 25.4 µM | MOLT-4 28.8 µM | SN12C 27.7 µM | DU-145 49.8 µM | T47D 35.2 µM | 786-0 35.6 µM | SF-295 36.6 µM | SK-MEL-2 35.4 µM | NCI-H522 > 100 µM | UACC-62 45.4 µM | SF-539 41.6 µM | HCC 2998 51.6 µM | MDA-MB-435 24.7 µM | SK-MEL-5 14.8 µM | EKVX 73.3 µM | MCF7 38.1 µM | MDA-MB-231 31 µM | SW-620 41.8 µM | NCI-H226 > 100 µM | SF-268 60.4 µM | PC-3 34.9 µM | Malme-3M 42.4 µM | HCT-116 33.6 µM | U-251 43.9 µM | A498 99.1 µM | M14 44 µM | A549 35.1 µM | CCRF-CEM 54.1 µM | NCI-H23 42.4 µM | OVCAR-8 44.9 µM | NCI/ADR-RES 33.4 µM | KM12 42.8 µM | UACC-257 24.4 µM | SK-OV-3 92.3 µM | CAKI-1 61.4 µM | TK-10 21.1 µM | BT-549 19.1 µM | HT-29 57.4 µM | SR 59.3 µM | LOX IMVI 33.3 µM | IGROV-1 > 100 µM | K562 61.1 µM | COLO 205 32.2 µM | HOP-62 36.2 µM | RPMI-8226 47.6 µM | UO-31 35.2 µM | OVCAR-5 > 100 µM
43 µM: HCT-15
